Consider two compounds from US8309550B2, “Kinase inhibitors and their use as pharmaceutical agents” (Shanghai Genomics, Inc., priority 2011, dated 2012).

Read-outs that look alike come from different tables or passages of the source.

A short description of series [1]: Pharmacokinetic determination, rat IV/PO study. Type of series: in vivo. Particulars: for MRT inf: read-out: MRT(0-∞). On the procedure:
Male Sprague-Dawley rats were maintained on food and water ad libitum. They were housed in an individual ventilated caging system. The test compound at a dose of 5 mg/kg and 20 mg/kg was given i.v. and orally to SD rats respectively (3 animals per group). The appropriate quantity compound with free base (Wt.: 346.1) was accurately weighted into a tube and dissolved in NMP, vortexed to get a clear solution. 0.015N HCl in Saline was added and the solution was vortexed to yield a clear and colorless solution at 1 mg/mL for both intravenous and oral administration. The concentration of the test compound in the dosing solution was reconfirmed by HPLC method. […] Plasma samples were collected from retro-orbital puncture at pre-dose and 0.083, 0.25, 0.5, 1, 2, 4, 6, 8, and 24 hours post-dose. All samples and the dose formulation were stored at −20° C. until bioanalysis. The concentrations of the test compound in plasma were determined using a high performance liquid chromatography/mass spectrometry (HPLC/MS/MS) method.

The test system of series [2] is Xenograft tumor models (HT-29, H460, Molt-4, PC-3M, HL60). Nature of the series: Xenograft studies with human tumor cell lines. Conditions: i.p, qd, 21 days, dosage from 12.5 mg/kg to 100 mg/kg; significant with p<0.05 (T-test). Type of series: in vivo, BALB/c nude mice. The procedure:
Female BALB/c nude mice from SHANGHAI SLAC LABORATORY ANIMAL CO with age of 5 to 6 weeks and body weight of 19 to 20 g were used in the study. Autoclaved water and irradiated food were provided ad libitum, and animals were maintained on a 12-hour light and 12-hour dark cycle. Cages, bedding, and water bottles were autoclaved before use and changed weekly. The health of all animals was determined by daily gross observation of experimental animals, and analyses of blood samples of sentinel animals housed on shared shelf racks. All animals were allowed to acclimate and recover from any shipping-related stress for a minimum of 72 hours before experimental use. All animal experiments were conducted according to the guidelines of Chinese.
Xenograft tumor models were established with human tumor cell lines. […] Tumor growth was monitored twice per week until the tumor reached to a volume of 100 mm^3. […]
Mortality checks were conducted daily. Body weight of the mice was determined twice a week. […] Weight loss was calculated as percentage change in mean group body weight using the following formula: [(W−W0)/W0]×100, where ‘W’ represents mean body weight of the treated group at a particular day and ‘W0’ represents mean body weight of the same treated group at initiation of treatment. Tumor volumes (in mm3) were calculated after 21 days drug administration. […]

Where [3] appears, read: male, Sprague-Dawley, plasma, IV (5 mg/kg).
Setting [4] is: male, Sprague-Dawley, plasma, PO (20 mg/kg).

For orientation: AUC(0-inf) means the area under the concentration-time curve extrapolated to infinity. High values mean more exposure, low ones less exposure. Broadly, the AUC(0-t) is the area under the concentration-time curve up to a stated or last time point. Low readings indicate low exposure, high ones high exposure. For orientation: Cmax means the maximum level reached in the sampled fluid or tissue. In general, Tmax refers to the time at which the peak concentration occurs. One may read the half-life as the time needed for the level to fall by half in the phase considered. A high value points to slow decline. Consider `CCn1cc(-c2ccnc(Nc3cccc(S(N)(=O)=O)c3)n2)c2cccnc21` [Compound 18, 3-(4-(1-Ethyl-1H-pyrrolo[2,3-b]pyridin-3-yl)pyrimidin-2-ylamino)benzenesulfonamide], for which the “F*” value in series [1] (PO (20 mg/kg) vs IV (5 mg/kg)) turned out to be 67.51%. Also, in series [1] (setting [3]), the AUC(0-inf) turned out to be 545 ng·h/mL, the exposure AUC(0-t) is 543 ng·h/mL, the highest level (Cmax) was 963 ng/mL and the time to peak (Tmax) was 4.98 min. In addition, in series [1] (setting [3]), the clearance is 156 mL/min/kg, the half-life is 42 min and the MRT inf turned out to be 40.2 min. Further, in series [1] (male, Sprague-Dawley, plasma, IV (5 mg/kg), read-out: Vz), the Vd turned out to be 9.6 L/kg. In series [1] (setting [4]), the AUC(0-inf) stood at 1490 ng·h/mL, the area under the curve AUC(0-t) is 1470 ng·h/mL, the highest level (Cmax) was 895 ng/mL and the Tmax was found to be 34.8 min. Further, in series [1] (setting [4]), the half-life was 74.4 min and the MRT inf is 100 min. For the same compound, the “oral availability and t 1/2 after oral administration (in words)” value in series [1] (oral administration) is “This result showed that compound 18 has good oral availability and t 1/2 after oral administration”.

For `CCCn1cc(-c2ccnc(Nc3ccc(C)c(S(=O)(=O)N4CCOCC4)c3)n2)c2ccncc21` [Compound 102, N-(4-Methyl-3-(morpholinosulfonyl)phenyl)-4-(1-propyl-1H-pyrrolo[2,3-c]pyridin-3-yl)pyrimidin-2-amine], the “anti-tumor activities in xenograft mice” value in series [2] is on record as “showed anti-tumor activities”.
